2 molecules from ChEMBL document CHEMBL1147594, “Evaluation of loxoprofen and its alcohol metabolites for potency and selectivity of inhibition of cyclooxygenase-2” (Bioorg Med Chem Lett, 2004) can be followed below.

Experiment [1] deals with T1, Prostaglandin G/H synthase 1 (Homo sapiens, UniProt P23219). Nature of the experiment: Inhibitory activity against recombinant human prostaglandin G/H synthase 1.
The target in experiment [2] is T2, Prostaglandin G/H synthase 2 (Homo sapiens, UniProt P35354).
T2 sequence (P35354 whole entry): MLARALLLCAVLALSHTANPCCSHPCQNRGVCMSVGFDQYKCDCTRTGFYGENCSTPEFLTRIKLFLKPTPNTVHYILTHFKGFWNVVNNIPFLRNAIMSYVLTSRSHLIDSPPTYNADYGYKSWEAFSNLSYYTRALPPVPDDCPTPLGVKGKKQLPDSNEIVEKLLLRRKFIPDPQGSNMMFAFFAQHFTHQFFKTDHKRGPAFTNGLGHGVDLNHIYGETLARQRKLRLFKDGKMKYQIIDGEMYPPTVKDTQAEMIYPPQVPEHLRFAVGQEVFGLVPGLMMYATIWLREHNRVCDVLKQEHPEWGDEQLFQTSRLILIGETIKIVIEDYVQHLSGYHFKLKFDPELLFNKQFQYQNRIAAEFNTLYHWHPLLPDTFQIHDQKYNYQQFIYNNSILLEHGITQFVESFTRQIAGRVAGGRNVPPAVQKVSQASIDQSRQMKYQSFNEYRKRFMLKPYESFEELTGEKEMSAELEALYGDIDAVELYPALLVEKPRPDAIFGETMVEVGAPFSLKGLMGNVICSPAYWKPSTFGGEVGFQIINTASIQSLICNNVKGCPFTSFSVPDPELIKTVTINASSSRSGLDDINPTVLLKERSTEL
Description: Inhibitory activity against recombinant human Prostaglandin G/H synthase 2

For experiment [3], the target named is T2, Prostaglandin G/H synthase 2. This is another data set of the same source.
Description: Inhibitory potency against cyclooxygenase-2 in human whole blood assay
Experiment [4] addresses T1, Prostaglandin G/H synthase 1.
Description: Inhibitory potency against Prostaglandin G/H synthase 1 in human whole blood assay

T1 sequence (P23219 whole entry): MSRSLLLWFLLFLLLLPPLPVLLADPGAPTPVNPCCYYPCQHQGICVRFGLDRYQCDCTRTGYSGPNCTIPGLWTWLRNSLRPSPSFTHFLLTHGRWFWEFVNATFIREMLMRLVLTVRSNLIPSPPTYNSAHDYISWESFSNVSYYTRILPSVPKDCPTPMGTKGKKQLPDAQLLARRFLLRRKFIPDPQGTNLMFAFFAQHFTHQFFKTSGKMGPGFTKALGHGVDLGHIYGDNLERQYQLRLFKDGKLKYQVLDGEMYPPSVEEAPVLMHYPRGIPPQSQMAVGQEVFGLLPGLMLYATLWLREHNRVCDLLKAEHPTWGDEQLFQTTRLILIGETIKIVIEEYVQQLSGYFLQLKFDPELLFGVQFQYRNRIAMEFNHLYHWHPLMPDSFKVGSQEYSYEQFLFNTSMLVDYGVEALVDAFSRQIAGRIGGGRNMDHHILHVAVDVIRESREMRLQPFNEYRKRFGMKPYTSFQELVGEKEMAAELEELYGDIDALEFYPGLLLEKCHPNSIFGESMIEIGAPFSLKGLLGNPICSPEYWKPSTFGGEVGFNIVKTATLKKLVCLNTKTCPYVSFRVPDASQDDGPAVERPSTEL

For orientation: IC50 means the concentration that gives 50% inhibition. With `CS(=O)(=O)c1ccc(C2=C(c3ccc(F)c(F)c3)C(=O)OC2)cc1`, the IC50 in experiment [1] was over 100 µM; in experiment [2], 0.23 µM; in experiment [3], 0.48 µM; in experiment [4], 15.3 µM.

Turning to `CC(C(=O)O)c1ccc(CC2CCCC2=O)cc1` (stereo not drawn) [LOXOPROFEN], the IC50 in experiment [1] is over 100 µM; in experiment [2], over 100 µM; in experiment [3] it was 13.5 µM; in experiment [4], 6.5 µM.
